Reference: patent publication US20250122539A1, “LARGE SCALE PRODUCTION OF DIVARIN, DIVARINIC ACID AND OTHER ALKYL RESORCINOLS BY FERMENTATION” (priority 2021, published 2025)

Test system: S. cerevisiae
Assay: Toxicity of organic phase (overlay/underlay) compounds to growth of the host strain
Settings: for toxicity to growth: compound as organic phase
Source text: In-situ liquid-liquid extraction (biphasic fermentation) is a strategy that can be employed in accordance with the present invention for physical separation of product from microorganisms via partitioning into the water immiscible organic liquid phase from an aqueous culture phase. The organic liquid phase or organic phase is present as either an overlay if its density is less than that of the aqueous phase, or an underlay if its density is greater than that of the aqueous phase. Certain properties of the overlay or underlay are considered for production of olivetolic acid/olivetol and other resorcinols such as of formulas IA and IB: (1) non-toxic or low toxicity for growth of the host strain, and/or (2) a favorable partitioning coefficient of the product in the organic phase vs. the aqueous phase, and/or (3) preferably a lower partition coefficient for fed hexanoic acid (for olivetolic acid/olivetol) or other fatty acid such as RCO2H (for other resorcinols) in the organic phase vs. the aqueous phase. Additional properties of the organic phase enhance its suitability for downstream conversion, e.g. and without limitation, to cannabigerol and other cannabinoid compounds, including suitability as a solvent or co-solvent during downstream prenylation or other reactions, and boiling point if downstream separation by distillation is employed.

Compound	toxicity to growth (under the test conditions)	also measured
2,2,4-trimethyl-1,3-pentanediol monoisobutyrate [Texanol]	inhibitory to growth	
CCCCCCCCCCO [Decanol]	toxic to growth	
CCCCOC(=O)CCCCCCCCC(=O)OCCCC [Dibutyl sebacate]	completely non-inhibitory to growth	
CCCCCCCCCCCCCC(=O)OC(C)C [IPM, isopropyl myristate]	non-toxic	
CCCCCCCC(=O)OC(C)C [Isopropyl octanoate]	moderately inhibitory but allowed for some growth	
CCCCCCCC(=O)OCC(COC(=O)CCCCCCC)OC(=O)CCCCCCC [Tricaprylin]	fairly toxic, however allowed some growth of strains	
CCCCCCCCCCCC(=O)OCCCC [butyl laurate]	non-toxic	
CC(C)(C)OC(=O)CC(=O)OC(C)(C)C [di-tert-butyl malonate]		toxicity toward growth of mixtures (1-10% (v/v), particularly 1-2.5% (v/v), in IPM and isopar M): much lower toxicity; toxicity to growth (with galactose addition): appearing toxic or to induce substantial lag; toxicity to growth (with glucose addition): supported growth of all strains
CCCCOC(=O)CCCCC(=O)OCCCC [dibutyl adipate]	no apparent toxicity	
CCOC(=O)C(CC)(CC)C(=O)OCC [diethyl diethylmalonate]		toxicity to growth (with galactose addition): substantial lag; toxicity to growth (with glucose addition): modest growth by most strains
CCOC(=O)CCCCCCCCC(=O)OCC [diethyl sebacate]	moderately growth inhibitory	toxicity to growth (with galactose addition): substantial lag; toxicity to growth (with glucose addition): modest growth by most strains
CC(C)OC(=O)CCCCC(=O)OC(C)C [diisopropyl adipate]	Growth was observed	
CCCCCCCCCCCC [dodecane]	Lack of toxicity	
CCCCCCCCCC(=O)OCC [ethyl decanoate]	increasingly non-toxic	
CCCCCCCCCCCC(=O)OCC [ethyl laurate]	non-toxic	
CCCCCCCCCCCCCC(=O)OCC [ethyl myristate]	non-toxic	
CCCCCCCCCCCCCCCC [hexadecane]	Lack of toxicity	
CCCCCCOC(=O)CCCCC [hexyl hexanoate]	moderately non-toxic	
CCCCCCCCCC(=O)OC [methyl decanoate]	moderately inhibitory to growth but still allowed for growth	
CCCCCCCCCCCCCC(=O)OC [methyl myristate]	non-toxic	
CCCCCCCCOC(C)=O [octyl acetate]	toxic	
CCCCCCCC/C=C\CCCCCCCCO [oleyl alcohol]	supported robust growth	
CCCCCCCCCCCCCC [tetradecane]	Lack of toxicity	
